Measured values taken from paper PMC13079941 (Proceedings of the National Academy of Sciences of the …, 2026).

Biological target: T1, CsRD21a (Citrus sinensis, UniProt A0ACB8KUT6)
T1 construct: gene KPL71_016607; full-length, untagged, expressed transiently in Nicotiana benthamiana; secreted, prodomain removed in planta, active forms 25-35 kDa; concentrated apoplastic fluid, not purified
Assay: competitive activity-based protein profiling, DCG-04 / streptavidin-HRP blot
Type: biochemical
Conditions: apoplastic fluid; 30 min preincubation; 50 mM sodium acetate pH 5.0, 5 mM DTT, room temperature

T1 sequence (A0ACB8KUT6 139-468): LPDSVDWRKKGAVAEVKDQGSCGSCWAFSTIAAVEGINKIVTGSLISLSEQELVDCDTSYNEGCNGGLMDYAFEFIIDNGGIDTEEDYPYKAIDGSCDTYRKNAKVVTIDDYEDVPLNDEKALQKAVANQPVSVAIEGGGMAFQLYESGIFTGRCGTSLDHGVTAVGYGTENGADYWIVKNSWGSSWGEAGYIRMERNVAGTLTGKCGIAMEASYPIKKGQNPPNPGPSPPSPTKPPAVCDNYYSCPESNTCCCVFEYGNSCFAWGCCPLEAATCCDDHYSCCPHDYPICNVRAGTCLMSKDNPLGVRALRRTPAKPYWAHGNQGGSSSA

Structure (SMILES): CC(C)C[C@H](NC(=O)[C@H]1O[C@@H]1C(=O)O)C(=O)NCCCCNC(=N)N [E-64]
- decrease of DCG-04 labelling, dosage-dependent: This signal decreased in the presence of the cysteine protease inhibitor E-64 in a dosage-dependent manner
